Laboratory results from PMC12313340, “Functional analysis of a UDP-glucosyltransferase gene contributing to biosynthesis of the flavonol triglycoside in tea plants” (Horticulture Research, 2025).

B1: CsFGT (rCsFGT) (Camellia sinensis) (protein)
chain: MERDIHAALVPFVAFGHLIPFYELSIALAKAGIHVSFISTRNNIQRLPPLPPHLSSLITFVPLSWSTVGTNLLPEGIEATADILPDNFEHLMAAFDLLKHPFKQFVIEQSPDWIISDFVSYWTVDVAKECHIPLVIFSARSAATNVFFGPPEYLSGNGQRRLRSSPEDLTSPPWWVSFRSSVHYRRYEAIGAIAGFYTANASGISGAERVGRTLDGCRALAIRSCREFEGEYFDLFGKIMGNKRVIPTGVLLPEKPKKTPTAAAHNAEWSKIFEWLDEQKPKSVVFVGFGSECKFSRDQVYEIASGLESSELPFLWALRKPSWASDDLDTMPPDFGRRTSGRGKVSIGWAPQIEILAHPSIGGSLVHAGWGSVVESLRFGHCMVVLPLIADQPLNARLLVEKGLAIEVERGEDGSFCGNNIALCLRKSMASKEGDEMRTRVEKAAVIFRDQKLHHQYVDEFVEYLKNGK
notes: N-terminal 6xHis-trigger factor fusion (pCold-TF), about 105 kDa; E. coli Origami (DE3); tag not removed for kinetics

Assays:
CsFGT (rCsFGT) [1] = molecular target: T1, CsFGT (rCsFGT) (Camellia sinensis, UniProt A0A0X9FCW5, E292Q); experiment: product formation by HPLC; format: biochemical; settings: co-substrate UDP-glc
T1 construct: gene UGT91Q1; N-terminal 6xHis-trigger factor fusion (pCold-TF), about 105 kDa; E. coli Origami (DE3); tag not removed for kinetics

CsFGT (rCsFGT) [2] = molecular target: T2, CsFGT (rCsFGT) (Camellia sinensis, UniProt A0A0X9FCW5, E292T); experiment: product formation by HPLC; format: biochemical; settings: co-substrate UDP-glc
T2 construct: gene UGT91Q1; N-terminal 6xHis-trigger factor fusion (pCold-TF), about 105 kDa; E. coli Origami (DE3); tag not removed for kinetics

CsFGT (rCsFGT) [3] = molecular target: T3, CsFGT (rCsFGT) (Camellia sinensis, UniProt A0A0X9FCW5, Q352A); experiment: product formation by HPLC; format: biochemical; settings: co-substrate UDP-glc
T3 construct: gene UGT91Q1; N-terminal 6xHis-trigger factor fusion (pCold-TF), about 105 kDa; E. coli Origami (DE3); tag not removed for kinetics

CsFGT (rCsFGT) [4] = molecular target: T4, CsFGT (rCsFGT) (Camellia sinensis, UniProt A0A0X9FCW5, R319P); experiment: product formation by HPLC; format: biochemical; settings: co-substrate UDP-glc
T4 construct: gene UGT91Q1; N-terminal 6xHis-trigger factor fusion (pCold-TF), about 105 kDa; E. coli Origami (DE3); tag not removed for kinetics

CsFGT (rCsFGT) [5] = molecular target: T5, CsFGT (rCsFGT) (Camellia sinensis, UniProt A0A0X9FCW5, G290A); experiment: product formation by HPLC; format: biochemical; settings: co-substrate UDP-glc
T5 construct: gene UGT91Q1; N-terminal 6xHis-trigger factor fusion (pCold-TF), about 105 kDa; E. coli Origami (DE3); tag not removed for kinetics

CsFGT (rCsFGT) [6] = molecular target: T6, CsFGT (rCsFGT) (Camellia sinensis, UniProt A0A0X9FCW5, Q352I); experiment: product formation by HPLC; format: biochemical; settings: co-substrate UDP-glc
T6 construct: gene UGT91Q1; N-terminal 6xHis-trigger factor fusion (pCold-TF), about 105 kDa; E. coli Origami (DE3); tag not removed for kinetics

CsFGT (rCsFGT) [7] = molecular target: T7, CsFGT (rCsFGT) (Camellia sinensis, UniProt A0A0X9FCW5, S291G); experiment: product formation by HPLC; format: biochemical; settings: co-substrate UDP-glc
T7 construct: gene UGT91Q1; N-terminal 6xHis-trigger factor fusion (pCold-TF), about 105 kDa; E. coli Origami (DE3); tag not removed for kinetics

CsFGT (rCsFGT) [8] = molecular target: T8, CsFGT (rCsFGT) (Camellia sinensis, UniProt A0A0X9FCW5, R319N); experiment: product formation by HPLC; format: biochemical; settings: co-substrate UDP-glc
T8 construct: gene UGT91Q1; N-terminal 6xHis-trigger factor fusion (pCold-TF), about 105 kDa; E. coli Origami (DE3); tag not removed for kinetics

[9] = substrate: C[C@@H]1O[C@@H](OC[C@H]2O[C@@H](Oc3c(-c4ccc(O)c(O)c4)oc4cc(O)cc(O)c4c3=O)[C@H](O)[C@@H](O)[C@@H]2O)[C@H](O)[C@H](O)[C@H]1O; experiment: UDP-Glo glycosyltransferase assay, Michaelis-Menten fit; format: biochemical, Camellia sinensis; settings: 1 mM UDP-glucose, 50 mM phosphate pH 8.0, 30°C, 10 min
Text: (§1) UDP-Glo glycosyltransferase assay, Michaelis-Menten fit on CsFGT (rCsFGT)

[10] = substrate: O=c1ccn([C@@H]2O[C@H](CO[P@@](=O)(O)O[P@@](=O)(O)O[C@H]3O[C@H](CO)[C@@H](O)[C@H](O)[C@H]3O)[C@@H](O)[C@H]2O)c(=O)[nH]1; experiment: as above; format: biochemical, Camellia sinensis; settings: 100 μM Q-g-r (rutin), 50 mM phosphate pH 8.0, 30°C, 10 min
Text: as §1

[11] = substrate: O=c1ccn([C@@H]2O[C@H](COP(=O)(O)OP(=O)(O)O[C@H]3O[C@H](CO)[C@H](O)[C@H](O)[C@H]3O)[C@@H](O)[C@H]2O)c(=O)[nH]1; experiment: as above; format: biochemical, Camellia sinensis; settings: co-substrate delphinidin, pH 8.0, 30°C, 10 min, galactosyl transfer
Text: as §1

[12] = substrate: Oc1cc(O)c2cc(O)c(-c3cc(O)c(O)c(O)c3)[o+]c2c1; experiment: as above; format: biochemical, Camellia sinensis; settings: 1 mM UDP-galactose, pH 8.0, 30°C, 10 min, galactosyl transfer
Text: as §1

T6 sequence (A0A0X9FCW5 entry or part of it Q352I): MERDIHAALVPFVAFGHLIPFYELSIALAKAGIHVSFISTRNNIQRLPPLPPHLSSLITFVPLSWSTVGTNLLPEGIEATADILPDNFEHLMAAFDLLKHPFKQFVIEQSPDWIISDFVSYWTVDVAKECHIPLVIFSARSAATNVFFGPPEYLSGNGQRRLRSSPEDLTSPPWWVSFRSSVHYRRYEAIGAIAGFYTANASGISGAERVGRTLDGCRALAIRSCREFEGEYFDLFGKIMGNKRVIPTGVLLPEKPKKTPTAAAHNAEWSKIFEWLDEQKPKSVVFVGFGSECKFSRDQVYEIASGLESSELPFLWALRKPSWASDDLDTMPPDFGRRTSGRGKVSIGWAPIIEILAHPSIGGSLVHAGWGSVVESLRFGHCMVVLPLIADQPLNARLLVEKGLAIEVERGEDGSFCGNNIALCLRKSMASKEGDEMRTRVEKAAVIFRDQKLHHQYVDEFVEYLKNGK
T1 sequence (A0A0X9FCW5 entry or part of it E292Q): as the sequence (A0A0X9FCW5 entry or part of it Q352I) above, with E292Q, I352Q counted along it
T4 sequence (A0A0X9FCW5 entry or part of it R319P): as the sequence (A0A0X9FCW5 entry or part of it Q352I) above, with R319P, I352Q counted along it
T7 sequence (A0A0X9FCW5 entry or part of it S291G): as the sequence (A0A0X9FCW5 entry or part of it Q352I) above, with S291G, I352Q counted along it
T2 sequence (A0A0X9FCW5 entry or part of it E292T): as the sequence (A0A0X9FCW5 entry or part of it Q352I) above, with E292T, I352Q counted along it
T5 sequence (A0A0X9FCW5 entry or part of it G290A): as the sequence (A0A0X9FCW5 entry or part of it Q352I) above, with G290A, I352Q counted along it
T8 sequence (A0A0X9FCW5 entry or part of it R319N): as the sequence (A0A0X9FCW5 entry or part of it Q352I) above, with R319N, I352Q counted along it
T3 sequence (A0A0X9FCW5 entry or part of it Q352A): as the sequence (A0A0X9FCW5 entry or part of it Q352I) above, with I352A counted along it

| Molecule | relative enzymatic activity (CsFGT (rCsFGT) [1]) | relative enzymatic activity (CsFGT (rCsFGT) [2]) | relative enzymatic activity (CsFGT (rCsFGT) [3]) | relative enzymatic activity (CsFGT (rCsFGT) [4]) | relative enzymatic activity (CsFGT (rCsFGT) [5]) | relative enzymatic activity (CsFGT (rCsFGT) [6]) | relative enzymatic activity (CsFGT (rCsFGT) [7]) | relative enzymatic activity (CsFGT (rCsFGT) [8]) | Km [9] | kcat/Km [9] | Km [10] | kcat/Km [10] | Km [11] | kcat/Km [11] | Km [12] | kcat/Km [12] |
| --- | --- | --- | --- | --- | --- | --- | --- | --- | --- | --- | --- | --- | --- | --- | --- | --- |
| C[C@@H]1O[C@@H](OC[C@H]2O[C@@H](Oc3c(-c4ccc(O)c(O)c4)oc4cc(O)cc(O)c4c3=O)[C@H](O)[C@@H](O)[C@@H]2O)[C@H](O)[C@H](O)[C@H]1O [Q-g-r] | mutants with activity unchanged or enhanced (G290A, S291G, E292Q, R319N, and R319P) | E292T, Q352A, and Q352I mutants exhibited significantly decreased activity | E292T, Q352A, and Q352I mutants exhibited significantly decreased activity | mutants with activity unchanged or enhanced (G290A, S291G, E292Q, R319N, and R319P) | mutants with activity unchanged or enhanced (G290A, S291G, E292Q, R319N, and R319P) | E292T, Q352A, and Q352I mutants exhibited significantly decreased activity | mutants with activity unchanged or enhanced (G290A, S291G, E292Q, R319N, and R319P) | the mutant R319N had significantly enhanced activity | – | – | – | – | – | – | – | – |
| B1 | – | – | – | – | – | – | – | – | 50.3 ± 9.7 µM | 610000 M⁻¹ s⁻¹ | 209.7 ± 43.9 µM | 110000 M⁻¹ s⁻¹ | 1143.3 ± 313.5 µM | 3100 M⁻¹ s⁻¹ | 902.5 ± 109.0 µM | 24000 M⁻¹ s⁻¹ |
